# Measured values taken from patent US20250099483A1, “THERAPEUTIC COMPOUNDS” (priority 2021, published 2025).
# Columns and labels:
# Format in all cases: in vivo, human (healthy male volunteers)
# [1] = Phase 1 trial Part I: plasma pharmacokinetics after single ascending oral doses
# Description: (§1) A Phase 1, randomized, double-blind, placebo-controlled clinical trial was performed to assess the safety and pharmacokinetics (PK) of Compound 1 after single, escalating, and repeated oral doses in healthy male volunteers.
# (§2) The primary objective was to assess the safety of escalating single oral doses of Compound 1 compared with placebo in healthy male volunteers. The secondary objective was to measure plasma pharmacokinetic (PK) parameters of Compound 1.
# (§3) 4-[(7-methoxy-2,3-dihydro-1,4-benzothiazepin-4(5H)yl)methyl]benzoic acid hemi-fumarate (Compound 1) was administered in a gastro-resistant tablet according to EXAMPLE 5. The formulation contained 20 mg, 40 mg, or 200 mg Compound 1 (based on the mass of 4-[(7-methoxy-2,3-dihydro-1,4-benzothiazepin-4(5H)yl)methyl]benzoic acid). Placebo tablet according to Example 2 was used as comparator.
# In part I, participants from groups A, B, C, D, and E received single doses of 40 mg, 80 mg, 160 mg, 240 mg, or 400 mg Compound 1, respectively, or corresponding placebo. Forty subjects completed part I: 30 active (6 per cohort) and 10 placebo.
# In Part I, blood samples were collected from each participant as follows: at pre-dose, then 0.25, 0.5, 1, 1.5, 2, 3, 4, 5, 6, 8, 10, 12, 16, 24, 36, 48, 60, 72, and 96 hours after dosing.
# (§4) The area under the plasma concentration-time curve was calculated using a combined linear and logarithmic trapezoidal rule. The interpolation was linear in the constant and ascending parts of the plasma concentration-time profiles. The interpolation was logarithmic in the descending parts.
# For Part I, to assess the dose effect on the PK of Compound 1, the mean AUClast, and Cmax for each dose were calculated and were plotted by dose.
# (§5) Plasma and muscle samples were analyzed by LC-MS/MS method.
# [2] = Phase 1 trial Part II: plasma pharmacokinetics after repeated once-daily oral doses over 14 days; settings: for Steady-state attained at day: once daily
# Description: as §1
# as §2, with “repeated” for “single”, “1 over 14 days” for “1”, “1 and to assess the concentration of Compound 1 in quadriceps muscle.” for “1.”
# as §3
# In Part II, participants from groups I, J, K, and L received repeated doses of 20 mg, 60 mg, 120 mg, or 240 mg Compound 1, respectively, or corresponding placebo once daily over a period of 14 days. Forty-one subjects completed Part II: 7/7/8/7 for cohorts I, J, K, L, and twelve placebo.
# In Part II, blood samples were collected from each participant as follows: Day 1:12 samples from the pre-morning dose up to 16 h (pre-dose, 0.25, 0.5, 1, 1.5, 2, 3, 4, 6, 8, 12, and 16 h), Days 2-13:12 samples at pre-doses (i.e., morning dose); Day 14:16 samples from the pre-morning dose up to 96 (D14 pre-dose, 0.25, 0.5, 1, 1.5, 2, 3, 4, 6, 8, 12, and 16 h and D15-18:1 sample before theoretical morning dosing.
# as §4
# For Part II, the same approach was used on AUC, (Day 14) respectively AUC24 (Day 1), and Cmax.
# as §5
# [3] = Phase 1 trial Part II: concentration in quadriceps muscle biopsy on Day 13; settings: for Total Cpd I concentration / Unbound Cpd I concentration: quadriceps muscle, Day 13, at least 3 h post dose, median (range); for Kp: geom. mean (geom. % CV)
# Description: The primary objective was to assess the safety of escalating repeated oral doses of Compound 1 over 14 days compared with placebo in healthy male volunteers. The secondary objective was to measure plasma pharmacokinetic (PK) parameters of Compound 1 and to assess the concentration of Compound 1 in quadriceps muscle. For Study part II (for all groups), Concentrations of Compound 1 were determined in muscle by performing muscle biopsy on quadriceps muscle on day 13, at least 3 hours after morning dose. Plasma and muscle samples were analyzed by LC-MS/MS method. Muscle biopsy was performed to assess the concentration of Compound 1 in quadriceps muscle. The biopsy was performed on Day 13 at 3 hours post dose at least. Table 10 summarizes the ratios of unbound respective total concentration at Day 13 at 3 hours post dose divided by the plasma concentration on Day 14 at 3 hours post dose.
# [4] = Phase 1 trial: safety and tolerability of single and repeated oral doses
# Description: as §1, §2
# as §2, with “repeated” for “single”, “1 over 14 days” for “1”, “1 and to assess the concentration of Compound 1 in quadriceps muscle.” for “1.”
compound,measurement,setting,value
"COc1ccc2c(c1)CN(Cc1ccc(C(=O)O)cc1)CCS2.O=C(O)/C=C/C(=O)O [Compound 1, 4-[(7-methoxy-2,3-dihydro-1,4-benzothiazepin-4(5H)yl)methyl]benzoic acid hemifumarate]",dose proportionality of AUClast and Cmax,"[1]; Part I, graphical inspections",dose proportionality
same,inter-individual variability across treatment groups,"[1]; Part I, single oral doses",low
same,linearity of pharmacokinetics with dose,"[1]; Part I, single oral doses",No evidence of non-linearity with the dose
same,tlag,"[1]; after single oral administration at 20 to 400 mg, gastro-resistant tablet",less than 2 hours
same,absorption,"[1]; single oral administration, after a lag time consistent with the gastro-resistant tablet",rapid absorption
same,Steady-state attained at day,[2]; 240 mg cohort,5
same,Steady-state attained at day,"[2]; 20, 60, and 120 mg cohorts",4
same,inter-individual variability (Cmax and AUC24),"[2]; Part II, 20, 60, 120, and 240 mg/d",low
same,Steady-state attained after days of daily treatment,"[2]; Part II, across cohorts 20-240 mg once daily",3 to 7 days
same,dose proportionality of AUCτ resp. AUC0-24 and Cmax,"[2]; Part II, graphical inspections",dose proportionality
same,accumulation ratios for Cmax and AUC24,"[2]; after 14-day repeated administrations of 20, 60, 120, and 240 mg/d",1.4-1.8
same,Tmax,"[2]; male, human, plasma, after 14-days of repeated once daily oral administrations of 20 mg (so in the source), read-out: median Tmax",3 to 3.5 h
same,linearity of pharmacokinetics with time and dose,[2]; single and repeat dose studies,No evidence of non-linearity with the time and dose
same,dose proportionality of median unbound and total concentrations in quadriceps muscle,"[3]; Part II, 20-240 mg once daily",dose proportional
same,Kp at 3 h,"[3]; male, human, quadriceps muscle / plasma, oral, summary, within the dose range 20-240 mg",0.04 to 0.08
same,Total Cpd I concentration,[3]; 20 mg once daily (n=7),171 (141-341) ng/g
same,Unbound Cpd I concentration,[3]; 20 mg once daily (n=7),22.0 (17.5-41.5) ng/g
same,Total Cpd I concentration,[3]; 60 mg once daily (n=7),489 (273-693) ng/g
same,Unbound Cpd I concentration,[3]; 60 mg once daily (n=7),80.3 (49.7-124) ng/g
same,Total Cpd I concentration,[3]; 120 mg once daily (n=8),913 (614-1207) ng/g
same,Unbound Cpd I concentration,[3]; 120 mg once daily (n=8),104 (63.2-196) ng/g
same,Total Cpd I concentration,[3]; 240 mg once daily (n=7),1480 (890-1745) ng/g
same,Unbound Cpd I concentration,[3]; 240 mg once daily (n=7),242 (196-452) ng/g
same,Kpu,"[3]; summary, within the dose range 20-240 mg",0.008-0.01
same,Kp,"[3]; total muscle concentration Day 13, 3 h post dose / plasma concentration Day 14, 3 h post dose, 20 mg once daily",0.0808 (65.3) (ng/g)/(ng/mL)
same,Kp,"[3]; total muscle concentration Day 13 / plasma concentration Day 14, 3 h post dose, 60 mg once daily",0.0640 (22.6) (ng/g)/(ng/mL)
same,Kp,"[3]; total muscle concentration Day 13 / plasma concentration Day 14, 3 h post dose, 120 mg once daily",0.0636 (49.9) (ng/g)/(ng/mL)
same,Kp,"[3]; total muscle concentration Day 13 / plasma concentration Day 14, 3 h post dose, 240 mg once daily",0.0440 (30.0) (ng/g)/(ng/mL)
same,tolerability,[4]; at the doses and dose regimens tested,well tolerated
same,serious adverse events,[4]; single doses and 14-day repeated doses tested,No serious adverse events were reported
